Values after ≈ are worked out from the molar mass of the structure shown. Read-outs that look alike come from different tables or passages of the source.
Experiments:
Type in all cases: cell-based, Acinetobacter baumannii
A. baumannii 1646 [1] = assay: MIC assay, strain 1646
Experimental: (§1) MIC and MBC assays were performed in this study as documented by us previously.^17,23,24,25 The A. baumannii strains used are detailed in Table 7.

A. baumannii 1651 = assay: MIC assay, strain 1651
Experimental: as §1

A. baumannii 1652 = assay: MIC assay, strain 1652
Experimental: as §1

A. baumannii 1649 = assay: MIC assay, strain 1649
Experimental: as §1

A. baumannii 1403 = assay: MIC assay, strain 1403
Experimental: as §1

A. baumannii 1650 = assay: MIC assay, strain 1650
Experimental: as §1

A. baumannii = assay: MIC assay, A. baumannii isolates (strain not given); settings: for MIC: Acinetobacter baumannii, strain not given, read-out: MIC
Experimental: as §1

A. baumannii 1646 [2] = assay: minimal bactericidal concentration (MBC) assay, strain 1646; settings: isolate 1646
Text: Lead quinazolines 4, 5, 26, 29, 27, and 30 were selected to be further evaluated for antimicrobial effects. The first assay utilized was a minimal bactericidal concentration (MBC) assay, to assess whether leads compounds were bacteriostatic or bactericidal. The six lead agents were screened to identify their MBC90 towards each of the six A. baumannii isolates used in the SAR studies (Table 8), however for simplicity only the representative data for isolate 1646 is detailed below (Table 6). […] Further to this, we were able to obtain complete eradication of bacterial growth for these two compounds at 1 μM for 24 and 5 μM for 25.
as §1

[3] = Acinetobacter baumannii, strain 1646, Table 2, read-out: 1646 MIC
[4] = Acinetobacter baumannii, strain 1651, Table 2, read-out: 1651 MIC
[5] = Acinetobacter baumannii, strain 1652, Table 2, read-out: 1652 MIC
[6] = Acinetobacter baumannii, strain 1649, Table 2, read-out: 1649 MIC
[7] = Acinetobacter baumannii, strain 1403, Table 2, read-out: 1403 MIC
[8] = Acinetobacter baumannii, strain 1650, Table 2, read-out: 1650 MIC
[9] = Acinetobacter baumannii, strain 1646, Tables 1, 3, 4, 5 and footnotes, read-out: 1646 MIC
[10] = Acinetobacter baumannii, strain 1651, Tables 1, 3, 4, 5 and footnotes, read-out: 1651 MIC
[11] = Acinetobacter baumannii, strain 1652, Tables 1, 3, 4, 5 and footnotes, read-out: 1652 MIC
[12] = Acinetobacter baumannii, strain 1649, Tables 1, 3, 4, 5 and footnotes, read-out: 1649 MIC
[13] = Acinetobacter baumannii, strain 1403, Tables 1, 3, 4, 5 and footnotes, read-out: 1403 MIC
[14] = Acinetobacter baumannii, strain 1650, Tables 1, 3, 4, 5 and footnotes, read-out: 1650 MIC
[15] = Acinetobacter baumannii, 1646, read-out: 1646 MIC
[16] = Acinetobacter baumannii, 1651, read-out: 1651 MIC
[17] = Acinetobacter baumannii, 1652, read-out: 1652 MIC
[18] = Acinetobacter baumannii, 1649, read-out: 1649 MIC
[19] = Acinetobacter baumannii, 1403, read-out: 1403 MIC
[20] = Acinetobacter baumannii, 1650, read-out: 1650 MIC

| Compound | MIC (A. baumannii 1646 [1]; [9]) [µM] | MIC (A. baumannii 1651; [10]) [µM] | MIC (A. baumannii 1652; [11]) [µM] | MIC (A. baumannii 1649; [12]) [µM] | MIC (A. baumannii 1403; [13]) [µM] | MIC (A. baumannii 1650; [14]) [µM] | further results |
| --- | --- | --- | --- | --- | --- | --- | --- |
| CNc1nc(NCc2ccccc2)nc2cc(C)ccc12 [Compound 7, N^2-Benzyl-N^4,7-dimethylquinazoline-2,4-diamine] | – | – | – | – | – | – | MIC (A. baumannii 1646 [1]; [3]): 12 µM (≈ 3.34 µg/mL); MIC (A. baumannii 1651; [4]): 12 µM (≈ 3.34 µg/mL); MIC (A. baumannii 1652; [5]): 35 µM (≈ 9.74 µg/mL); MIC (A. baumannii 1649; [6]): 25 µM (≈ 6.96 µg/mL); MIC (A. baumannii 1403; [7]): 50 µM (≈ 13.9 µg/mL); MIC (A. baumannii 1650; [8]): 50 µM (≈ 13.9 µg/mL) |
| CNc1nc(NCc2ccccc2)c2cc(C)ccc2n1 [Compound 11, N^4-Benzyl-N^2,6-dimethylquinazoline-2,4-diamine] | 6 (≈ 1.67 µg/mL) | 12 (≈ 3.34 µg/mL) | > 50 | > 50 | > 50 | > 50 | – |
| CNc1nc(NCCc2ccccc2)nc2ccccc12 [Compound 16, N^4-Methyl-N^2-phenethylquinazoline-2,4-diamine] | 12 (≈ 3.34 µg/mL) | > 50 | > 50 | > 50 | > 50 | > 50 | fold more active than the benzyl analogue 8 (A. baumannii; MIC comparison): 4 fold |
| CNc1nc(NCc2ccccc2)nc2ccccc12 [Compound 8, N^2-benzyl-N^4-methylquinazolin-2,4-diamine] | – | – | – | – | – | – | MIC (A. baumannii 1646 [1]; [3]): 50 µM (≈ 13.2 µg/mL); MIC (A. baumannii 1651; [4]): > 50 µM; MIC (A. baumannii 1652; [5]): > 50 µM; MIC (A. baumannii): ≥ 50 µM; MIC (A. baumannii 1649; [6]): > 50 µM; MIC (A. baumannii 1403; [7]): > 50 µM; MIC (A. baumannii 1650; [8]): > 50 µM |
| CNc1nc(NCc2ccccc2)nc2ccc(-c3ccccc3)cc12 [Compound 31, N^2-Benzyl-N^4-methyl-6-phenylquinazoline-2,4-diamine] | – | – | – | – | – | – | MIC (A. baumannii 1646 [1]; [15]): 10 µM (≈ 3.4 µg/mL); MIC (A. baumannii 1651; [16]): 2 µM (≈ 0.681 µg/mL); MIC (A. baumannii 1652; [17]): 50 µM (≈ 17 µg/mL); MIC (A. baumannii 1649; [18]): 20 µM (≈ 6.81 µg/mL); MIC (A. baumannii 1403; [19]): 30 µM (≈ 10.2 µg/mL); MIC (A. baumannii 1650; [20]): 20 µM (≈ 6.81 µg/mL) |
| CNc1nc(NCc2ccccc2)nc2cc(Cl)ccc12 [Compound 2, N^2-Benzyl-7-chloro-N^4-methylquinazoline-2,4-diamine] | 6 (≈ 1.79 µg/mL) | 10 (≈ 2.99 µg/mL) | 50 (≈ 14.9 µg/mL) | 30 (≈ 8.96 µg/mL) | > 50 | > 50 | – |
| CNc1nc(NCc2ccccc2)nc2cc(Br)ccc12 [Compound 6, N^2-Benzyl-7-bromo-N^4-methylquinazoline-2,4-diamine] | – | – | – | – | – | – | MIC (A. baumannii 1646 [1]; [3]): 6 µM (≈ 2.06 µg/mL); MIC (A. baumannii 1651; [4]): 10 µM (≈ 3.43 µg/mL); MIC (A. baumannii 1652; [5]): > 50 µM; MIC (A. baumannii 1649; [6]): 25 µM (≈ 8.58 µg/mL); MIC (A. baumannii 1403; [7]): > 50 µM; MIC (A. baumannii 1650; [8]): > 50 µM |
| CNc1nc(NCc2ccccc2)c2ccc(Cl)cc2n1 [Compound 13, N^4-Benzyl-7-chloro-N^2-methylquinazoline-2,4-diamine] | 4 (≈ 1.2 µg/mL) | > 50 | > 50 | > 50 | > 50 | > 50 | – |
| CNc1nc(NCc2ccccc2)c2cc(OC)ccc2n1 [Compound 12, N^4-Benzyl-6-methoxy-N^2-methylquinazoline-2,4-diamine] | 6 (≈ 1.77 µg/mL) | 8 (≈ 2.35 µg/mL) | > 50 | > 50 | > 50 | > 50 | – |
| CNc1nc(NCc2ccccc2)c2ccc(C)cc2n1 [Compound 15, N^4-Benzyl-N^2,7-dimethylquinazoline-2,4-diamine] | 12 (≈ 3.34 µg/mL) | > 50 | > 50 | > 50 | > 50 | > 50 | – |
| CNc1nc(NCc2ccccc2)c2ccc(Br)cc2n1 [Compound 14, N^4-Benzyl-7-bromo-N^2-methylquinazoline-2,4-diamine] | 4 (≈ 1.37 µg/mL) | > 50 | > 50 | > 50 | > 50 | > 50 | – |
| CNc1nc(NCc2ccccc2)nc2ccc(-c3ccco3)cc12 [Compound 32, N^2-Benzyl-6-(furan-2-yl)-N^4-methylquinazoline-2,4-diamine] | – | – | – | – | – | – | MIC (A. baumannii 1646 [1]; [15]): 25 µM (≈ 8.26 µg/mL); MIC (A. baumannii 1651; [16]): 15 µM (≈ 4.96 µg/mL); MIC (A. baumannii 1652; [17]): > 50 µM; MIC (A. baumannii 1649; [18]): > 50 µM; MIC (A. baumannii 1403; [19]): 40 µM (≈ 13.2 µg/mL); MIC (A. baumannii 1650; [20]): > 50 µM |
| CNc1nc(NCCc2ccccc2)nc2ccc(OC)cc12 [Compound 18, 6-Methoxy-N^4-methyl-N^2-phenethylquinazoline-2,4-diamine] | 4 (≈ 1.23 µg/mL) | > 50 | > 50 | > 50 | > 50 | > 50 | MIC (A. baumannii): 2 to 4 µM (≈ 0.617 to 1.23 µg/mL) |
| CNc1nc(NCc2ccccc2)c2cc(Cl)ccc2n1 [Compound 9, N^4-Benzyl-6-chloro-N^2-methylquinazoline-2,4-diamine] | 4 (≈ 1.2 µg/mL) | 6 (≈ 1.79 µg/mL) | > 50 | 50 (≈ 14.9 µg/mL) | > 50 | 50 (≈ 14.9 µg/mL) | – |

Continued by falling MIC (A. baumannii 1646 [1]; [9]), values first:

| MIC (A. baumannii 1646 [1]; [9]) [µM] | MIC (A. baumannii 1651; [10]) [µM] | MIC (A. baumannii 1652; [11]) [µM] | MIC (A. baumannii 1649; [12]) [µM] | MIC (A. baumannii 1403; [13]) [µM] | MIC (A. baumannii 1650; [14]) [µM] | Compound | further results |
| --- | --- | --- | --- | --- | --- | --- | --- |
| 2 (≈ 0.686 µg/mL) | > 50 | > 50 | 50 (≈ 17.2 µg/mL) | > 50 | > 50 | CNc1nc(NCc2ccccc2)c2cc(Br)ccc2n1 [Compound 10, N^4-Benzyl-6-bromo-N^2-methylquinazoline-2,4-diamine] | – |
| 2 (≈ 0.585 µg/mL) | 2 (≈ 0.585 µg/mL) | 30 (≈ 8.77 µg/mL) | 10 (≈ 2.92 µg/mL) | 30 (≈ 8.77 µg/mL) | 30 (≈ 8.77 µg/mL) | CCc1ccc2nc(NCc3ccccc3)nc(NC)c2c1 [Compound 23, N^2-Benzyl-6-ethyl-N^4-methylquinazoline-2,4-diamine] | – |
| 2 (≈ 0.589 µg/mL) | 10 (≈ 2.94 µg/mL) | 30 (≈ 8.83 µg/mL) | 25 (≈ 7.36 µg/mL) | > 50 | 50 (≈ 14.7 µg/mL) | CNc1nc(NCc2ccccc2)nc2ccc(OC)cc12 [Compound 3, N^2-Benzyl-6-methoxy-N^4-methylquinazoline-2,4-diamine] | – |
| 2 (≈ 0.715 µg/mL) | 10 (≈ 3.57 µg/mL) | > 50 | > 50 | > 50 | > 50 | CNc1nc(NCCc2ccccc2)nc2ccc(Br)cc12 [Compound 19, 6-Bromo-N^4-methyl-N^2-phenethylquinazoline-2,4-diamine] | MIC (A. baumannii): 2 to 4 µM (≈ 0.715 to 1.43 µg/mL) |
| 2 (≈ 0.598 µg/mL) | 6 (≈ 1.79 µg/mL) | 20 (≈ 5.98 µg/mL) | 25 (≈ 7.47 µg/mL) | 50 (≈ 14.9 µg/mL) | 15 (≈ 4.48 µg/mL) | CNc1nc(NCc2ccccc2)nc2ccc(Cl)cc12 [Compound 1, N^2-Benzyl-6-chloro-N^4-methylquinazoline-2,4-diamine] | – |
| 2 (≈ 0.626 µg/mL) | > 50 | > 50 | > 50 | > 50 | > 50 | CNc1nc(NCCc2ccccc2)nc2ccc(Cl)cc12 [Compound 17, 6-Chloro-N^4-methyl-N^2-phenethylquinazoline-2,4-diamine] | MIC (A. baumannii): 2 to 4 µM (≈ 0.626 to 1.25 µg/mL) |
| 2 (≈ 0.581 µg/mL) | 25 (≈ 7.26 µg/mL) | 25 (≈ 7.26 µg/mL) | 10 (≈ 2.9 µg/mL) | 25 (≈ 7.26 µg/mL) | 20 (≈ 5.81 µg/mL) | C=Cc1ccc2nc(NCc3ccccc3)nc(NC)c2c1 [Compound 22, N^2-Benzyl-N^4-methyl-6-vinylquinazoline-2,4-diamine] | – |
| 2 (≈ 0.661 µg/mL) | 30 (≈ 9.91 µg/mL) | > 50 | 50 (≈ 16.5 µg/mL) | > 50 | > 50 | CNc1nc(NCc2ccccc2)nc2ccc(C3=CCCC3)cc12 [Compound 28, N^2-Benzyl-6-(cyclopent-1-en-1-yl)-N^4-methylquinazoline-2,4-diamine] | – |
| 2 (≈ 0.585 µg/mL) | 10 (≈ 2.92 µg/mL) | > 50 | > 50 | > 50 | > 50 | CNc1nc(NCCc2ccccc2)nc2ccc(C)cc12 [Compound 20, N^4,6-Dimethyl-N^2-phenethylquinazoline-2,4-diamine] | MIC (A. baumannii): 2 to 4 µM (≈ 0.585 to 1.17 µg/mL) |
| 2 (≈ 0.609 µg/mL) | 10 (≈ 3.04 µg/mL) | > 50 | 25 (≈ 7.61 µg/mL) | > 50 | > 50 | C=C(C)c1ccc2nc(NCc3ccccc3)nc(NC)c2c1 [Compound 24, N^2-Benzyl-N^4-methyl-6-(prop-1-en-2-yl)quinazoline-2,4-diamine] | concentration giving complete eradication of bacterial growth (A. baumannii 1646 [2]): 1 µM |
